Here are results for twelve compounds from patent US11180530B2, “Salt of phenylpropionamide derivative and preparation method therefor” (priority 2017, dated 2021).

Data set [1] is classed as physicochemical. Here is the method: Samples of the compound represented by formula (I) and acetate, hydrochloride, citrate and phosphate of the compound represented by formula (I) were respectively placed open and evenly spread, so that the stability of the samples were investigated under the conditions of room temperature, heating (40° C., 60° C.), illumination (4500Lux) and high humidity (RH75% and RH90%). The sampling period is 20 days.

The format of data set [2] is physicochemical. Here is the method: Samples of acetate, hydrochloride, citrate and phosphate of the compound represented by formula (I) were subjected to a long-term accelerated stability investigation for 6 months under dark and sealed conditions (the inner package is a medicinal low-density polyethylene composite film and the outer package is aluminum foil), humidity (60% RH), temperature (4° C., 25° C.) and with/without nitrogen protection.
This is another data set of the same source.

The mark [3] stands for this setting: 25° C., 60% RH, nitrogen protection, 1 month.
Setting [4] is: 25° C., 60% RH, nitrogen protection, 3 months.
[5] abbreviates: 25° C., 60% RH, nitrogen protection, 6 months.
[6] abbreviates: 25° C., 60% RH, nitrogen protection, initial.

Structures can show the parent of a compound that is named as a salt. Where two headings read alike, the source gives them in different places. Where a SMILES comes first, the peptide text is derived from it. [ ]: non-standard residue; d: D form. The star is where a group is joined. Gly(N-(2R-Ph-propyl)) = C[C@@H](CNCC(=O)O)c1ccccc1; Piperidin1yl(4-NH2,4-COOH) = NC1(C(=O)O)CCN(*)CC1

Take `CC(C)C[C@@H](NC(=O)[C@@H](Cc1ccccc1)NC(=O)CNC[C@H](C)c1ccccc1)C(=O)N[C@H](CCCCN)C(=O)N1CCC(N)(C(=O)O)CC1` [hydrochloride (1:2)] (H-[Gly(N-(2R-Ph-propyl))][dF][dL][dK]-{Piperidin1yl(4-NH2,4-COOH)}): the “Stability (conclusion in words)” value in data set [1] (illumination and high temperature, 20 days) is “slightly degraded”.

As for `CC(C)C[C@@H](NC(=O)[C@@H](Cc1ccccc1)NC(=O)CNC[C@H](C)c1ccccc1)C(=O)N[C@H](CCCCN)C(=O)N1CCC(N)(C(=O)O)CC1` [Citrate (1:2)] (H-[Gly(N-(2R-Ph-propyl))][dF][dL][dK]-{Piperidin1yl(4-NH2,4-COOH)}), the “Stability (conclusion in words)” value in data set [1] (high temperature of 60° C.) is “degraded greatly”.

On to `CC(C)C[C@@H](NC(=O)[C@@H](Cc1ccccc1)NC(=O)CNC[C@H](C)c1ccccc1)C(=O)N[C@H](CCCCN)C(=O)N1CCC(N)(C(=O)O)CC1` [Embodiment 14, 4-amino-1-((2R,5R,8R,14R)-2-(4-aminobutyl)-8-benzyl-5-isobutyl-4,7,10-trioxo-14-phenyl-3,6,9,12-tetraazapentadecan-1-acyl)piperidine-4-carboxylic acid] (H-[Gly(N-(2R-Ph-propyl))][dF][dL][dK]-{Piperidin1yl(4-NH2,4-COOH)}), for which the Purity % is given as 99.19% in data set [1] (4500 Lux, 0 days (initial)); 99.15% in data set [1] (4500 Lux, 5 days); 99.12% in data set [1] (4500 Lux, 10 days); 99.12% in data set [1] (4500 Lux, 20 days).

As to `CC(C)C[C@@H](NC(=O)[C@@H](Cc1ccccc1)NC(=O)CNC[C@H](C)c1ccccc1)C(=O)N[C@H](CCCCN)C(=O)N1CCC(N)(C(=O)O)CC1` [hydrochloride (1:3)] (H-[Gly(N-(2R-Ph-propyl))][dF][dL][dK]-{Piperidin1yl(4-NH2,4-COOH)}), the “Stability (conclusion in words)” value in data set [1] (illumination condition) is “slightly degraded”; in data set [1] (other conditions (than illumination)), “stable”.

For `CC(C)C[C@@H](NC(=O)[C@@H](Cc1ccccc1)NC(=O)CNC[C@H](C)c1ccccc1)C(=O)N[C@H](CCCCN)C(=O)N1CCC(N)(C(=O)O)CC1` [Embodiment 11, 4-amino-1-((2R,5R,8R,14R)-2-(4-aminobutyl)-8-benzyl-5-isobutyl-4,7,10-trioxo-14-phenyl-3,6,9,12-tetraazapentadecan-1-acyl)piperidine-4-carboxylic acid] (H-[Gly(N-(2R-Ph-propyl))][dF][dL][dK]-{Piperidin1yl(4-NH2,4-COOH)}), the Purity % in data set [2] (4° C., 1 month) is 99.49%; in data set [2] (4° C., 3 months), 99.56%; in data set [2] (4° C., 6 months) it was 99.57%; in data set [2] (4° C., initial), 99.50%; in data set [2] (setting [3]), 99.50%; in data set [2] (setting [4]), 99.51%. For the same compound, the Purity % was found to be 99.51% in data set [2] (setting [5]); 99.50% in data set [2] (setting [6]); 99.50% in data set [2] (25° C., 60% Rh, 1 month); 99.52% in data set [2] (25° C., 60% Rh, 3 months); 99.5% in data set [2] (25° C., 60% Rh, 6 months); 99.50% in data set [2] (25° C., 60% Rh, initial).

On to `CC(C)C[C@@H](NC(=O)[C@@H](Cc1ccccc1)NC(=O)CNC[C@H](C)c1ccccc1)C(=O)N[C@H](CCCCN)C(=O)N1CCC(N)(C(=O)O)CC1` [Embodiment 4, 4-amino-1-((2R,5R,8R,14R)-2-(4-aminobutyl)-8-benzyl-5-isobutyl-4,7,10-trioxo-14-phenyl-3,6,9,12-tetraazapentadecan-1-acyl)piperidine-4-carboxylic acid] (H-[Gly(N-(2R-Ph-propyl))][dF][dL][dK]-{Piperidin1yl(4-NH2,4-COOH)}), for which the Purity % in data set [1] (25° C., 5 days) turned out to be 97.56%; in data set [1] (25° C., 10 days), 97.44%; in data set [1] (25° C., 20 days), 97.28%; in data set [1] (40° C., 5 days), 86.31%; in data set [1] (4500 Lux, 0 days (initial)), 97.70%; in data set [1] (4500 Lux, 5 days) it was 95.83%. The Purity % in data set [1] (4500 Lux, 10 days) amounted to 94.91%; in data set [1] (4500 Lux, 20 days), 92.17%.

Turning to `CC(C)C[C@@H](NC(=O)[C@@H](Cc1ccccc1)NC(=O)CNC[C@H](C)c1ccccc1)C(=O)N[C@H](CCCCN)C(=O)N1CCC(N)(C(=O)O)CC1` [Embodiment 3, 4-amino-1-((2R,5R,8R,14R)-2-(4-aminobutyl)-8-benzyl-5-isobutyl-4,7,10-trioxo-14-phenyl-3,6,9,12-tetraazapentadecan-1-acyl)piperidine-4-carboxylic acid] (H-[Gly(N-(2R-Ph-propyl))][dF][dL][dK]-{Piperidin1yl(4-NH2,4-COOH)}), the Purity % in data set [2] (4° C., 1 month) was 99.59%; in data set [2] (4° C., 3 months), 99.58%; in data set [2] (4° C., 6 months), 99.60%; in data set [2] (4° C., initial) it was 99.59%; in data set [2] (setting [3]), 99.58%; in data set [2] (setting [4]), 99.51%. Further, the Purity % in data set [2] (setting [5]) came out at 99.54%; in data set [2] (setting [6]), 99.59%; in data set [2] (25° C., 60% Rh, 1 month), 99.62%; in data set [2] (25° C., 60% Rh, 3 months) it was 99.61%; in data set [2] (25° C., 60% Rh, 6 months) it was 99.57%; in data set [2] (25° C., 60% Rh, initial), 99.59%. In addition, the Aspect result in data set [2] (setting [3]) is reported as “White”; in data set [2] (setting [4]) it was “White”; in data set [2] (setting [5]) it was “White”; in data set [2] (setting [6]), “White”; in data set [2] (25° C., 60% Rh, 1 month) it was “White”; in data set [2] (25° C., 60% Rh, 3 months) it was “White”. For the same compound, the Aspect result is listed as “White” in data set [2] (25° C., 60% Rh, 6 months) and “White” in data set [2] (25° C., 60% Rh, initial).

`CC(C)C[C@@H](NC(=O)[C@@H](Cc1ccccc1)NC(=O)CNC[C@H](C)c1ccccc1)C(=O)N[C@H](CCCCN)C(=O)N1CCC(N)(C(=O)O)CC1` [Embodiment 6, 4-amino-1-((2R,5R,8R,14R)-2-(4-aminobutyl)-8-benzyl-5-isobutyl-4,7,10-trioxo-14-phenyl-3,6,9,12-tetraazapentadecan-1-acyl)piperidine-4-carboxylic acid] (H-[Gly(N-(2R-Ph-propyl))][dF][dL][dK]-{Piperidin1yl(4-NH2,4-COOH)}): the Purity % in data set [1] (25° C., 5 days) is recorded as 99.27%; in data set [1] (25° C., 10 days), 99.27%; in data set [1] (25° C., 20 days) it was 99.30%; in data set [1] (40° C., 5 days) it was 99.03%; in data set [1] (4500 Lux, 0 days (initial)), 99.32%; in data set [1] (4500 Lux, 5 days) it was 97.13%. Also, the Purity % in data set [1] (4500 Lux, 10 days) is listed as 95.32%; in data set [1] (4500 Lux, 20 days), 92.39%.

Take `CC(C)C[C@@H](NC(=O)[C@@H](Cc1ccccc1)NC(=O)CNC[C@H](C)c1ccccc1)C(=O)N[C@H](CCCCN)C(=O)N1CCC(N)(C(=O)O)CC1` [Acetate (1:2)] (H-[Gly(N-(2R-Ph-propyl))][dF][dL][dK]-{Piperidin1yl(4-NH2,4-COOH)}): the “Stability (conclusion in words)” value in data set [1] (high temperature) was “poor stability”. In addition, the “acetate (radical) content by ion chromatography” value in data set [1] (high temperature, after the 20-day experiment) is “greatly reduced”.

In the case of `CC(C)C[C@@H](NC(=O)[C@@H](Cc1ccccc1)NC(=O)CNC[C@H](C)c1ccccc1)C(=O)N[C@H](CCCCN)C(=O)N1CCC(N)(C(=O)O)CC1` [Embodiment 2, 4-amino-1-((2R,5R,8R,14R)-2-(4-aminobutyl)-8-benzyl-5-isobutyl-4,7,10-trioxo-14-phenyl-3,6,9,12-tetraazapentadecan-1-acyl)piperidine-4-carboxylic acid] (H-[Gly(N-(2R-Ph-propyl))][dF][dL][dK]-{Piperidin1yl(4-NH2,4-COOH)}), the Purity % is 97.64% in data set [1] (25° C., 5 days); 97.64% in data set [1] (25° C., 10 days); 97.63% in data set [1] (25° C., 20 days); 96.23% in data set [1] (40° C., 5 days); 97.65% in data set [1] (4500 Lux, 0 days (initial)); 96.99% in data set [1] (4500 Lux, 5 days). The Purity % is reported as 96.68% in data set [1] (4500 Lux, 10 days) and 96.72% in data set [1] (4500 Lux, 20 days).

Take `CC(C)C[C@@H](NC(=O)[C@@H](Cc1ccccc1)NC(=O)CNC[C@H](C)c1ccccc1)C(=O)N[C@H](CCCCN)C(=O)N1CCC(N)(C(=O)O)CC1` [Embodiment 13, 4-amino-1-((2R,5R,8R,14R)-2-(4-aminobutyl)-8-benzyl-5-isobutyl-4,7,10-trioxo-14-phenyl-3,6,9,12-tetraazapentadecan-1-acyl)piperidine-4-carboxylic acid] (H-[Gly(N-(2R-Ph-propyl))][dF][dL][dK]-{Piperidin1yl(4-NH2,4-COOH)}): the Purity % in data set [1] (4500 Lux, 0 days (initial)) came to 97.39%; in data set [1] (4500 Lux, 5 days) it was 97.29%; in data set [1] (4500 Lux, 10 days), 97.28%; in data set [1] (4500 Lux, 20 days) it was 97.28%.

As for `CC(C)C[C@@H](NC(=O)[C@@H](Cc1ccccc1)NC(=O)CNC[C@H](C)c1ccccc1)C(=O)N[C@H](CCCCN)C(=O)N1CCC(N)(C(=O)O)CC1` [Embodiment 12, 4-amino-1-((2R,5R,8R,14R)-2-(4-aminobutyl)-8-benzyl-5-isobutyl-4,7,10-trioxo-14-phenyl-3,6,9,12-tetraazapentadecan-1-acyl)piperidine-4-carboxylic acid] (H-[Gly(N-(2R-Ph-propyl))][dF][dL][dK]-{Piperidin1yl(4-NH2,4-COOH)}), the Purity % is 96.93% in data set [1] (25° C., 5 days); 96.80% in data set [1] (25° C., 10 days); 96.97% in data set [1] (25° C., 20 days); 97.04% in data set [1] (4500 Lux, 0 days (initial)); 96.65% in data set [1] (4500 Lux, 5 days); 96.63% in data set [1] (4500 Lux, 10 days). The Purity % in data set [1] (4500 Lux, 20 days) is recorded as 96.77%.
